# Data: patent publication US20220142934A1, “COMBINATION THERAPEUTICS AND METHODS FOR THE TREATMENT OF NEURODEGENERATIVE AND OTHER DISEASES” (Aphios Corporation, priority 2020, published 2022)
# How the values were obtained:
# [1] = tested on: Mouse strain B6C3-Tg carrying mutant Swedish Amyloid precursor protein (sweAPP) and PSI (presenilin-l) genes; experiment: Water maze studies in Alzheimer's disease mouse model; type: in vivo
# From the text: Mouse strain B6C3-Tg carrying mutant Swedish Amyloid precursor protein (sweAPP) and PSI (presenilin-l) genes associated with early onset Alzheimer's disease were subjected to water maze tests at 5-6 months of age.
# [2] = tested on: ADAM10; experiment: ADAM10 (alpha-secretase) expression in SH-SY5Y cells; type: cell-based; conditions: each agent alone or in combination
# From the text: Therefore, Bryostatin-1 may increase a-secretase processing through 2 independent mechanisms: (i) activation of PKCs which stimulate secretase; and (ii) increased expression of a-secretase.
# [3] = tested on: prostate cancer cells; conditions: by modulating PKC delta translocation and preventing TNF-alpha release; cited from earlier work
# [4] = tested on: SH-SY5Y neuroblastoma cells; experiment: sAPPα formation/release in SH-SY5Y cells (6E10 western blot, densitometry); type: cell-based; conditions: Bryostatin-1 alone
# Description: Cells were treated with RA, Bryostatin-1 (10^−9M)+RA, Bryostatin-1 (10^−10M) RA+Bryostatin-1 (10^−10M) for 3 h. Representative western blots show sAPPα recovered from culture medium.
smiles,measurement,setting,value
CCC/C=C/C=C/C(=O)O[C@H]1/C(=C/C(=O)OC)C[C@H]2C[C@H]([C@@H](C)O)OC(=O)C[C@H](O)C[C@@H]3C[C@H](OC(C)=O)C(C)(C)[C@](O)(C[C@@H]4C/C(=C/C(=O)OC)C[C@H](/C=C/C(C)(C)[C@]1(O)O2)O4)O3 [Bryostatin-1],protection against Alzheimer's disease mediated memory loss (water maze),"[1]; 5 micrograms/mouse on alternative days orally in an oil formulation, mice 5-6 months of age, vs control animals",significant protection
same,memory and cognition in AD model,"[1]; mouse, in vivo",enhance memory and cognition
same,expression of ADAM10 (the major form of alpha-secretase),[2],significantly increase
same,phorbol ester-induced apoptosis,[3],inhibits
same,sAPPα formation,"[4]; 10^−9M, SH-SY5Y cells",increased
same,sAPPα recovered from culture medium,"[4]; 10^−10M, 3 h, SH-SY5Y cells, vs control",significantly increased
same,activity of alpha-secretase,[4]; SH-SY5Y neuroblastoma cells,potently stimulate
